pKd: −log10 of the molar value.

The values that follow come from article PMC6375994, “Macrophage Migration Inhibitory Factor Acts as the Potential Target of a Newly Synthesized Compound, 1-(9′-methyl-3′-carbazole)-3, 4-dihydro-β-carboline” (Scientific Reports, 2019).

The test addresses T1, recombinant human MIF protein (Homo sapiens, UniProt P14174).
T1 construct: commercial recombinant human MIF (PeproTech), amine-coupled to CM7 chip; homotrimer
T1 sequence (P14174 2-115): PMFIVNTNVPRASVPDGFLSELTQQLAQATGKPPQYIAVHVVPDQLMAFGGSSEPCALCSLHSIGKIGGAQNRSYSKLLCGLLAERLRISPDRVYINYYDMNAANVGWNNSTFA
In words: surface plasmon resonance (Biacore T200). It counts as binding.

For `Cn1c2ccccc2c2cc(C3=NCCc4c3[nH]c3ccccc43)ccc21` [compound 7, 1-(9′-methyl-3′-carbazole)-3,4-dihydro-β-carboline], the pKd was 6.14.
